This note sets out measurements from patent publication US20130005743A1, “New positive allosteric modulators of nicotinic acetylcholine receptor” (H. Lundbeck A/S, priority 2011, published 2013).

For one data set, the target named is T1, human α7 receptor (Homo sapiens, UniProt P36544).
T1 construct: host or cells: rat GH4C1 cell line
Put plainly: α7 NNR flux assay (FDSS Ca assay, positive allosteric modulation of acetylcholine response). It counts as cell-based. To be noted: human α7 receptor stably expressed in rat GH4C1 cells; acetylcholine 20 μM; % modulation relative to PNU-120596 set to 100%. As to the method: The nicotinic acetylcholine receptor α7 is a calcium-permeable ion channel, whose activity can be measured by over expression in mammalian cells or oocytes. In this version of the assay, the human α7 receptor is stably expressed in the rat GH4C1 cell line. The assay was used to identify positive allosteric modulators (PAMs) of the α7 receptor. Activation of the channel was measured by loading cells with the calcium-sensitive fluorescent dye. Calcium-4 (Assay kit from Molecular Devices), and then measuring real-time changes, in fluorescence upon treatment with test compounds.
The cell line ChanClone GH4C1-nAChRalpha7 from Genionics was seeded from frozen stock in 384-well plates in culture media 2-3 days before experiment to form an approximately 80% confluent layer on the day of experiment.
The cell culture were split into “22.5 cm×22.5 cm”-plates with approximately 100×10^3 cells/cm^2. After four days incubation in a humidified incubator at 37° C. and 5% CO2, it had grown to an 80-90% confluent layer, and the cells were harvested.
Two or three days before the experiment the cells were seeded in 384 well plates from Greiner bio-one (781946, CELLCOAT, Poly-D-Lysine, black, μClear).
The cells were seeded in 384 well plates with 30 μL/well (30000 cells/well) while stirring the cell suspension or otherwise preventing the cells from precipitating.
The loading buffer was 5% v/v Calcium-4 Kit and 2.5 mM Probenecid in assay buffer.
Culture media was removed from the cell plates and 20 μL loading buffer was added in each well. The cell plates were placed in trays and incubated 90 minutes in the incubator (37° C.). Thereafter the plates were incubated 30 minutes at room temperature, still protected from light.
The assay buffer was HBSS with 20 mM HEPES, pH 7.4 and 3 mM CaCl2.
[…] 10 mM compound solution in DMSO was diluted in 50 μL assay buffer. The final test concentrations in the cell plates were 20-10-5-2.5-1.25-0.625-0.312-0.156-0.078-0.039 μM. Assay buffer and 3 μM PNU-120596 were used for control. The agonist acetylcholine was added to a final concentration of 20 μM (˜EC100). In the FDSS7000 the Ex480-Em540 was measured with 1 second intervals. The baseline was made of 5 frames before addition of test compounds, and 95 frames more were made before addition of acetylcholine. The measurement stopped 30 frames after the 2nd addition. Raw data for each well were collected as “the maximum fluorescence count” in the interval 100-131 seconds and as “the average fluorescence count” in the interval 96-100 seconds. The positive allosteric modulation in the 2nd addition was the enhancement of agonist response with test compound compared to agonist alone.
Results were calculated as % modulation of test compound compared to the reference PNU-120596 set to 100%.

The next data set deals with α7 nACh receptors. Put plainly: α7 NNR oocyte assay (electrophysiological recordings in Xenopus oocytes). It counts as cell-based, human or rat. Particulars: compound at 10 μM co-applied with ACh (30 μM), fold modulation of the control response; for Fold modulation, peak: peak response; for Fold modulation, AUC: total charge (AUC). As to the method: Expression of α7 nACh Receptors in Xenopus Oocytes.
Oocytes were surgically removed from mature female Xenepus laevis anaesthetized in 0.4% MS-222 for 10-15 min. The oocytes were then digested at room temperature for 2-3 hours with 0.5 mg/mL collagenase (type IA Sigma-Aldrich) in OR2 buffer (82.5 mM NaCl, 2.0 mM KCl, 1.0 mM MgCl2 and 5.0 mM HEPES, pH 7.6). Oocytes avoid of the follicle layer were selected and incubated for 24 hours in Modified Barth's Saline buffer (88 mM NaCl, 1 mM KCl, 15 mM HEPES, 2.4 mM NaHCO3, 0.41 mM CaCl2, 0.82 mM MgSO4, 0.3 mM Ca(NO3)2) supplemented with 2 mM sodium pyruvate, 0.1 U/l penicillin and 0.1 μg/1 streptomycin. Stage 1V oocytes were identified and injected with 4.2-48 nl of nuclease free water containing 0.1-1.2 ng of cRNA coding for human α7 nACh receptors or 3.0-32 ng of cRNA coding for rat α7 nACh receptors and incubated at 18° C. for 1-10 days when they were used for electrophysiological recordings.
Electrophysiological Recordings of α7 nACh Receptors Expressed in Oocytes.
Oocytes were used for electrophysiological recordings 1-10 days after injection. Oocytes were placed in a 1 mL bath and perfused with Ringer buffer (115 mM NaCl, 2.5 mM KCl, 10 mM HEPES, 1.8 mM CaCl2, 0.1 mM MgCl2, pH 7.5)'. Cells were impaled with agar plugged 0.2-1 MΩ electrodes containing 3 M KCl and voltage clamped at −90 mV by a GeneClamp 500B amplifier. The experiments were performed at room temperature. Oocytes were continuously perfused with Ringer buffer and the drugs were applied in the perfusate. ACh (30 μM) applied for 30 sec were used as the standard agonist for activation of the α7 nACh receptors. In the standard screening set-up the new test compound (10 μM or 30 μM) were applied for 1 min of pre-application allowing for evaluation of agonistic activity followed by 30 sec of co-application with ACh (30 μM) allowing for evaluation of PAM activity. The response of co-application was compared to the agonistic response obtained with ACh alone. The drug induced effects on both the peak response and the total charge (AUC) response were calculated thus giving the effect of drug induced PAM activity as fold modulation of the control response. Table 2 indicates fold modulation of compounds No. 21, 22, 24, 34, 35 and 36 at determined at 10 μM.
For more elaborate studies doses-response curves can be performed for evaluation of max-fold modulation and EC50 values for both peak and AUC responses.

T1 sequence (P36544 23-502): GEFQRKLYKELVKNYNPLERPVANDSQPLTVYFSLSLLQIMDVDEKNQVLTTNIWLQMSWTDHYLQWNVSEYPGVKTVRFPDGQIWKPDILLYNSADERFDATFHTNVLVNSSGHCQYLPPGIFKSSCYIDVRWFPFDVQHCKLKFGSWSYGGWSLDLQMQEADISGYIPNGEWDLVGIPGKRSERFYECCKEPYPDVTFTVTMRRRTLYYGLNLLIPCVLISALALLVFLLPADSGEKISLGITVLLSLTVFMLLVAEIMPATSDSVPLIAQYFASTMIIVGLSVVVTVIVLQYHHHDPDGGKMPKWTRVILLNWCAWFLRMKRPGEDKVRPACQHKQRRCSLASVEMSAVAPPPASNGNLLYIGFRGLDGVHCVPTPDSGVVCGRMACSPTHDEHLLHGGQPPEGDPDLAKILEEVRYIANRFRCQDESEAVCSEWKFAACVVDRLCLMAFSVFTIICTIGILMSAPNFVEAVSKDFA

For orientation: EC50 means the concentration that produces a half-maximal response. What is called melting point is the temperature of the solid-liquid transition. In the case of `COc1ccc(-n2nc(C)c3c(C(=O)Nc4c(C)ccnc4C)cc(C)nc32)cc1` [Compound 1, 1-(4-Methoxy-phenyl)-3,6-dimethyl-1H-pyrazolo[3,4-b]pyridine-4-carboxylic acid (2,4-dimethyl-pyridin-3-yl)-amide], the melting point fell in the range of 224 to 227 °C. The same molecule displayed a concentration giving a half-maximal response (EC50) at human α7 receptor of 3.9 µM.
Take `Cc1cc(C(=O)Nc2c(C)ccnc2C)c2c(C)nn(-c3ccc(S(N)(=O)=O)cc3)c2n1` [Compound 21, 3,6-Dimethyl-1-(4-sulfamoyl-phenyl)-1H-pyrazolo[3,4-b]pyridine-4-carboxylic acid (2,4-dimethyl-pyridin-3-yl)-amide]: in the data set with α7 nACh receptors, the “Fold modulation, peak” value is 1.7 and the “Fold modulation, AUC” value is 1.7. This molecule also had a 50% effective concentration (EC50) on human α7 receptor of no less than 20 µM.
As to `Cc1cc(C(=O)Nc2c(C)ccnc2C)c2c(C)nn(-c3ccc(C(F)(F)F)cc3)c2n1` [Compound 22, 3,6-Dimethyl-1-(4-trifluoromethyl-phenyl)-1H-pyrazolo[3,4-b]pyridine-4-carboxylic acid (2,4-dimethyl-pyridin-3-yl)-amide], in the data set with α7 nACh receptors, the “Fold modulation, peak” value is reported as 8.1 and the “Fold modulation, AUC” value worked out at 3.2. Further, at human α7 receptor, the 50% effective concentration (EC50) is no less than 20 µM.
On the same counts, the results for `COc1ccc(-n2nc(OC)c3c(C(=O)Nc4c(C)ccnc4C)cc(C)nc32)cc1` [Compound 24, 3-Methoxy-1-(4-methoxy-phenyl)-6-methyl-1H-pyrazolo[3,4-b]pyridine-4-carboxylic acid (2,4-dimethyl-pyridin-3-yl)-amide] are 5.1, 2.5 and no less than 20 µM.
`COc1nccc(C)c1NC(=O)c1cc(C)nc2c1c(C)nn2-c1ccccc1` [Compound 27, 3,6-Dimethyl-1-phenyl-1H-pyrazolo[3,4-b]pyridine-4-carboxylic acid (2-methoxy-4-methyl-pyridin-3-yl)-amide] had a melting point of 172 to 174 °C. The molecule further returned an EC50 on human α7 receptor of 5 µM.
On the same counts, the results for `COc1cc(C)ncc1NC(=O)c1cc(C)nc2c1c(C)nn2-c1ccccc1` [Compound 29, 3,6-Dimethyl-1-phenyl-1H-pyrazolo[3,4-b]pyridine-4-carboxylic acid (4-methoxy-6-methyl-pyridin-3-yl)-amide] are 206 to 207 °C and 5.1 µM.
On the same counts, the results for `Cc1cc(C(=O)Nc2cccnc2C)c2c(C)nn(-c3ccccc3)c2n1` [Compound 31, 3,6-Dimethyl-1-phenyl-1H-pyrazolo[3,4-b]pyridine-4-carboxylic acid (2-methyl-pyridin-3-yl)-amide] are 208 to 209 °C and 5.6 µM.
On the same counts, the results for `Cc1cc(C(=O)Nc2cnccc2C)c2c(C)nn(-c3ccccc3)c2n1` [Compound 32, 3,6-Dimethyl-1-phenyl-1H-pyrazolo[3,4-b]pyridine-4-carboxylic acid (4-methyl-pyridin-3-yl)-amide] are 227 to 228 °C and 6.2 µM.
Turning to `Cc1cc(C(=O)Nc2c(C)ccnc2C)c2c(C)nn(-c3ccc(S(C)(=O)=O)cc3)c2n1` [Compound 34, 1-(4-Methanesulfonyl-phenyl)-3,6-dimethyl-1H-pyrazolo[3,4-b]pyridine-4-carboxylic acid (2,4-dimethyl-pyridin-3-yl)-amide], in the data set with α7 nACh receptors, the “Fold modulation, peak” value is 1.9 and the “Fold modulation, AUC” value was 1.9. In addition, at human α7 receptor, the EC50 is no less than 20 µM.
On to `COc1ccc(-n2nc(C)c3c(C(=O)Nc4c(C)ccnc4C)cc(-c4ccccc4)nc32)cc1` [Compound 35, 1-(4-Methoxy-phenyl)-3-methyl-6-phenyl-1H-pyrazolo[3,4-b]pyridine-4-carboxylic acid (2,4-dimethyl-pyridin-3-yl)-amide], for which, in the data set on α7 nACh receptors, the “Fold modulation, peak” value was 14 and the “Fold modulation, AUC” value came to 9.2. Moreover, at human α7 receptor, the EC50 was no less than 20 µM.
On the same counts, the results for `COc1ccc(-n2nc(C)c3c(C(=O)Nc4cnccc4C#N)cc(C)nc32)cc1` [Compound 36, 1-(4-Methoxy-phenyl)-3,6-dimethyl-1H-pyrazolo[3,4-b]pyridine-4-carboxylic acid (4-cyano-pyridin-3-yl)-amide] are 7.9, 3.9 and no less than 20 µM.
